Experiment in all cases: NCI-60 cell line screen, 48 h
Assay [1] has as its system 786-0.
The test system of assay [2] is UO-31.
Assay [3] relates to NCI-H522.
For assay [4], the system named is M14.
Assay [5] concerns K562.
The subject of assay [6] is HOP-62.
The test system of assay [7] is MDA-MB-231.
In assay [8] the test system is SW-620.
For assay [9], the system named is RPMI-8226.
Assay [10] deals with SF-295.
The test system of assay [11] is EKVX.
Assay [12] concerns COLO 205.
The test system of assay [13] is NCI-H23.
Assay [14] deals with RXF 393.
For assay [15], the system named is OVCAR-8.
The test system of assay [16] is CCRF-CEM.
The test system of assay [17] is SK-MEL-28.
The subject of assay [18] is MOLT-4.
In assay [19] the test system is SN12C.
The test system of assay [20] is HT-29.

Each structure is given as a SMILES string.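 48-hour exposure; five concentrations; linearly interpolated endpoints. GI50 marks 50% less growth.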 Calls of active or inactive are those of the source. Cut-off read from the data, not from the text of the source: active = GI50 up to about 1.1 µM and inactive = higher.

For the molecule `O=C1C(Cl)=C(N2CCN(c3ccccn3)CC2)C(=O)c2c(O)ccc(O)c21`, the GI50 in [1] was 1.25 µM (inactive); in [2], 1.87 µM (inactive); in [3], 1.74 µM (inactive); in assay [4], 1.46 µM (inactive); in assay [5], 0.512 µM (active); in assay [6], 4.67 µM (inactive). For the same molecule, the GI50 is 1.74 µM (inactive) in assay [7]; 0.665 µM (active) in assay [8]; 0.394 µM (active) in assay [9]; 3.78 µM (inactive) in [10]; 4.27 µM (inactive) in assay [11]; 1.43 µM (inactive) in assay [12]. For the same molecule, the GI50 in assay [13] was 1.18 µM (inactive); in [14] it was 1.74 µM (inactive); in assay [15] it was 2.12 µM (inactive); in assay [16], 0.37 µM (active); in [17] it was 1.9 µM (inactive); in assay [18], 0.456 µM (active). Also, the GI50 in [19] was 1.88 µM (inactive); in assay [20], 1.28 µM (inactive).
As to `CC(=O)OC(C)(C)/N=N/c1ccc(Br)cc1`, the GI50 in [1] is 22.9 µM (inactive); in assay [2], 0.425 µM (active); in [3] it was 9.4 µM (inactive); in assay [4], 0.277 µM (active); in assay [5] it was 0.0596 µM (active); in assay [6], 34.3 µM (inactive). Moreover, the GI50 was > 76.2 µM (inactive) in assay [7]; 48.2 µM (inactive) in assay [8]; 0.942 µM (active) in assay [9]; 0.153 µM (active) in assay [10]; 9.38 µM (inactive) in assay [11]; 0.52 µM (active) in assay [12]. Also, the GI50 in [13] is 25.8 µM (inactive); in assay [14], 20.6 µM (inactive); in [15], 17.5 µM (inactive); in assay [16], 10.2 µM (inactive); in [17] it was 3.01 µM (inactive); in assay [18] it was 3.56 µM (inactive). The GI50 was 32.7 µM (inactive) in assay [19] and 0.975 µM (active) in [20].
In the case of `O=C1CCSc2c(cnc3ccccc23)N1`, the GI50 is > 100 µM (inactive) in [1]; 60.7 µM (inactive) in assay [2]; > 100 µM (inactive) in [3]; > 100 µM (inactive) in assay [4]; > 100 µM (inactive) in [5]; > 100 µM (inactive) in [6]. Also, the GI50 in [7] is > 100 µM (inactive); in assay [8] it was > 100 µM (inactive); in assay [9], > 100 µM (inactive); in [10], > 100 µM (inactive); in assay [11], 32.1 µM (inactive); in assay [12], > 100 µM (inactive). Also, the GI50 was > 100 µM (inactive) in assay [13]; 34.4 µM (inactive) in assay [14]; > 100 µM (inactive) in [15]; > 100 µM (inactive) in assay [16]; > 100 µM (inactive) in assay [17]; > 100 µM (inactive) in assay [18]. In addition, the GI50 in assay [19] and in assay [20] was > 100 µM (inactive) in each case.
`COC1(OC)c2no[n+]([O-])c2C(OC)(OC)c2c1no[n+]2[O-]`: the GI50 in assay [1] is 18.5 µM (inactive); in assay [2], 28.2 µM (inactive); in assay [3], 21.7 µM (inactive); in assay [4], 12.3 µM (inactive); in assay [5] it was 38.9 µM (inactive); in [6], 18.4 µM (inactive). Besides, the GI50 in assay [7] is 16.4 µM (inactive); in assay [8], 17.9 µM (inactive); in assay [9], 35.6 µM (inactive); in assay [10], 35.7 µM (inactive); in assay [11] it was 14.7 µM (inactive); in assay [12], 12.9 µM (inactive). The GI50 was 11.4 µM (inactive) in assay [13]; 26.1 µM (inactive) in assay [14]; 13.4 µM (inactive) in assay [15]; 4.19 µM (inactive) in assay [16]; 15.7 µM (inactive) in [17]; 12.4 µM (inactive) in [18]. Also, the values for the GI50 in assay [19] and in assay [20] were 20.4 µM (inactive) and 17.3 µM (inactive), respectively.
For the molecule `COc1cc2c(c(OC)c1OC)-c1ccc(OC)c(=O)cc1C(NC(=O)CCCCCNc1ccc(N=[N+]=[N-])cc1[N+](=O)[O-])CC2` (stereo not given), the GI50 in assay [1] was < 0.01 µM (active); in assay [2], 1.47 µM (inactive); in assay [3], < 0.01 µM (active); in [4], < 0.01 µM (active); in assay [5] it was < 0.01 µM (active); in assay [6], < 0.01 µM (active). Further, the GI50 in assay [7] is < 0.01 µM (active); in assay [8], < 0.01 µM (active); in [9], < 0.01 µM (active); in assay [10] it was < 0.0118 µM (active); in assay [11], < 0.0136 µM (active); in [12] it was < 0.01 µM (active). Besides, the GI50 in [13], in [14], in assay [15], in assay [16], in assay [17] and in assay [18] was < 0.01 µM (active) throughout. In addition, the GI50 in assay [19] and in [20] was < 0.01 µM (active) in each case.
`O=c1[nH]nc(Cc2c[nH]c3ccccc23)o1`: the GI50 in assay [1], in assay [2], in assay [3], in assay [4], in assay [5] and in assay [6] was > 100 µM (inactive) throughout. Besides, the GI50 in assay [7], in assay [8], in assay [9], in assay [10], in assay [11] and in [12] was > 100 µM (inactive) in each case. Further, the GI50 in [13], in assay [14], in assay [15], in assay [16], in [17] and in assay [18] was > 100 µM (inactive) throughout. Also, the GI50 in assay [19] and in [20] was > 100 µM (inactive) throughout.
For `[N-]=[N+]=Nc1c(Cc2ccccc2)c(Cl)nc2ccccc12`, the GI50 in assay [1] is 35.6 µM (inactive); in assay [2], 28.6 µM (inactive); in assay [3], 27.5 µM (inactive); in assay [4], 20.8 µM (inactive); in assay [5], 23.9 µM (inactive); in assay [6], 22.4 µM (inactive). The GI50 was 18.7 µM (inactive) in [7]; 33.4 µM (inactive) in assay [8]; 38.3 µM (inactive) in assay [9]; 22.2 µM (inactive) in [10]; 27.2 µM (inactive) in assay [11]; 15.1 µM (inactive) in assay [12]. The GI50 was 28.8 µM (inactive) in assay [13]; 15.7 µM (inactive) in [14]; 20.8 µM (inactive) in assay [15]; 39.8 µM (inactive) in [16]; 45.5 µM (inactive) in assay [17]; 28.8 µM (inactive) in [18]. Moreover, the GI50 is 23.6 µM (inactive) in assay [19] and 31.6 µM (inactive) in [20].
For the molecule `CN(C)Cc1cc(/N=N/c2ccc(Cl)cc2)ccc1O`, the GI50 was 12.8 µM (inactive) in assay [1]; 11.7 µM (inactive) in assay [2]; 13.5 µM (inactive) in assay [3]; 9.75 µM (inactive) in [4]; 17.3 µM (inactive) in assay [5]; 10.1 µM (inactive) in assay [6]. In addition, the GI50 was 16.1 µM (inactive) in assay [7]; 16.4 µM (inactive) in assay [8]; > 10 µM (inactive) in assay [9]; 16.5 µM (inactive) in assay [10]; 18.3 µM (inactive) in assay [11]; 3.81 µM (inactive) in assay [12]. Besides, the GI50 in assay [13] was 23 µM (inactive); in assay [14], 13.9 µM (inactive); in assay [15], 16.9 µM (inactive); in assay [16] it was 17.8 µM (inactive); in assay [17], 16 µM (inactive); in assay [18], 15.2 µM (inactive). In addition, the GI50 is 16.9 µM (inactive) in assay [19] and 12.6 µM (inactive) in [20].
As to `[N-]=[N+]=Nc1ccc2c(c1)Sc1ccccc1N2CCCCN1CCN(C(=O)CCNC(=O)Cc2ccc(C(=O)c3ccccc3)cc2)CC1`, the GI50 is 3.76 µM (inactive) in assay [1]; 5.32 µM (inactive) in assay [2]; 2.45 µM (inactive) in assay [3]; 4.75 µM (inactive) in [4]; 1.68 µM (inactive) in assay [5]; 8.45 µM (inactive) in [6]. Also, the GI50 in assay [7] is 4.74 µM (inactive); in [8], 9.66 µM (inactive); in [9], 1.58 µM (inactive); in assay [10], 3.78 µM (inactive); in assay [11] it was 3.18 µM (inactive); in assay [12], 3.39 µM (inactive). Besides, the GI50 in assay [13] was 4.78 µM (inactive); in [14], 10.9 µM (inactive); in assay [15] it was 7.03 µM (inactive); in assay [16] it was 1.79 µM (inactive); in assay [17] it was 4.81 µM (inactive); in assay [18], 1.54 µM (inactive). Moreover, the GI50 in [19] is 7.26 µM (inactive); in assay [20], 1.98 µM (inactive).
Consider `Cc1ccc(/C=N/Nc2nncc3ccccc23)s1`, for which the GI50 in assay [1] is > 52.2 µM (inactive); in assay [2], > 100 µM (inactive); in assay [3] it was 31.5 µM (inactive); in assay [4], > 67.5 µM (inactive); in [5] it was > 100 µM (inactive); in assay [6], > 46.7 µM (inactive). Besides, the GI50 in assay [7] was 33 µM (inactive); in assay [8] it was > 100 µM (inactive); in [9], > 100 µM (inactive); in [10] it was 35.9 µM (inactive); in [11] it was > 100 µM (inactive); in assay [12], > 100 µM (inactive). Also, the GI50 was > 83.8 µM (inactive) in [13]; > 100 µM (inactive) in assay [14]; 65.2 µM (inactive) in [15]; > 100 µM (inactive) in assay [16]; > 100 µM (inactive) in assay [17]; > 100 µM (inactive) in assay [18]. The GI50 in assay [19] and in assay [20] was > 100 µM (inactive) throughout.

For the origin of these results see ChEMBL document CHEMBL1201862, “PubChem BioAssay data set” (2004).
